Holding throughout (test): NCI anticancer screen, dose series, 48 h
The subject of assay [1] is UO-31.
The test system of assay [2] is IGROV-1.
The test system of assay [3] is UACC-62.
The test system of assay [4] is OVCAR-8.
The subject of assay [5] is SR.
The test system of assay [6] is NCI-H23.
Assay [7] relates to SF-539.
The test system of assay [8] is EKVX.
In assay [9] the test system is SK-MEL-28.
Assay [10] relates to SW-620.
Assay [11] relates to DU-145.
Assay [12] has as its system HL-60.
In assay [13] the test system is COLO 205.
The subject of assay [14] is SK-MEL-5.
The test system of assay [15] is M14.
Assay [16] concerns SNB-75.
Assay [17] concerns RPMI-8226.
Assay [18] concerns Malme-3M.
In assay [19] the test system is U-251.
The test system of assay [20] is NCI-H226.

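These data come from cells grown in 96-well plates and exposed to compound for 48 hours at five concentrations. GI50 marks 50% less growth.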 Calls of active or inactive are those of the source. No stated cut-off is given here; in the data, active = GI50 up to about 1.1 µM and inactive = higher. Bounds are passed on as bounds.

For the compound `COc1cc(S(=O)(=O)N/N=C/C=C/c2ccccc2)c(OC)cc1NC(C)=O`, the GI50 is 42.9 µM (inactive) in [1]; 17.8 µM (inactive) in assay [2]; 86.9 µM (inactive) in assay [3]; 12.2 µM (inactive) in [4]; 12.3 µM (inactive) in [5]; 41.8 µM (inactive) in assay [6]. The GI50 in [7] was 5.26 µM (inactive); in [8], 5.14 µM (inactive); in assay [9] it was 56.5 µM (inactive); in assay [10], 25.4 µM (inactive); in [11], 31.8 µM (inactive); in assay [12], 33 µM (inactive). Besides, the GI50 in [13] was 17.7 µM (inactive); in assay [14] it was 3.73 µM (inactive); in assay [15], 21.9 µM (inactive); in assay [16], > 100 µM (inactive); in [17], 19.1 µM (inactive); in assay [18], 35.6 µM (inactive).

Consider `C/C(=N\Nc1nc2ccccc2o1)c1ccc2ccccc2n1`, for which the GI50 in [1] is 2.09 µM (inactive); in [2] it was 0.356 µM (active); in [3], 3.8 µM (inactive); in assay [4], 2.89 µM (inactive); in assay [5], 0.579 µM (active); in assay [6] it was 8.75 µM (inactive). Also, the GI50 is 7.36 µM (inactive) in assay [7]; 0.458 µM (active) in assay [8]; 3.96 µM (inactive) in assay [9]; 4.07 µM (inactive) in assay [10]; 4.41 µM (inactive) in assay [11]; 2.33 µM (inactive) in assay [12]. In addition, the GI50 in [13] was 3.85 µM (inactive); in assay [14], 3.15 µM (inactive); in assay [15], 2.57 µM (inactive); in assay [16], 11.6 µM (inactive); in [17] it was 2.69 µM (inactive); in [19], 3.21 µM (inactive). Further, in [18], the GI50 was 4.21 µM (inactive).

With `Clc1c(Cl)c(Cl)c2nn(C3CCCO3)nc2c1Cl` (stereo not given), the GI50 was 32.4 µM (inactive) in assay [2]; 60.3 µM (inactive) in assay [3]; 63.5 µM (inactive) in assay [4]; 52.6 µM (inactive) in assay [5]; 37.8 µM (inactive) in assay [6]; 86.9 µM (inactive) in assay [7]. The GI50 is 19.5 µM (inactive) in assay [8]; > 100 µM (inactive) in assay [11]; 55.6 µM (inactive) in [13]; 25.5 µM (inactive) in assay [14]; > 100 µM (inactive) in [20]; > 100 µM (inactive) in assay [15]. In addition, the GI50 is 41.4 µM (inactive) in assay [19] and 39.4 µM (inactive) in assay [18].

Consider `O=C1CCC[C@H]2O[C@@H](COCc3ccccc3)C[C@@H]12`, for which the GI50 in assay [1], in assay [3], in assay [4], in assay [5], in assay [6] and in assay [7] was > 100 µM (inactive) throughout. In addition, the GI50 in assay [9], in [10], in assay [11], in assay [12], in assay [13] and in [14] was > 100 µM (inactive) in each case. Further, the GI50 in assay [20], in [15], in [16], in [17] and in assay [19] was > 100 µM (inactive) throughout.

As to `CC(C)(C)c1ccc(O)c(C(c2ccc([N+](=O)[O-])cc2)c2cc(C(C)(C)C)ccc2O)c1`, the GI50 in assay [1] is 1.95 µM (inactive); in assay [2], 2.15 µM (inactive); in assay [3], 1.66 µM (inactive); in [4], 2.56 µM (inactive); in assay [5] it was 2.4 µM (inactive); in assay [6], 1.99 µM (inactive). In addition, the GI50 in assay [7] is 1.89 µM (inactive); in assay [8], 1.97 µM (inactive); in assay [9], 1.74 µM (inactive); in [10], 2.11 µM (inactive); in assay [11] it was 2.39 µM (inactive); in assay [12] it was 2.23 µM (inactive). Besides, the GI50 in assay [13] is 2.5 µM (inactive); in assay [20] it was 1.78 µM (inactive); in [15] it was 1.68 µM (inactive); in [16] it was 2.05 µM (inactive); in assay [17] it was 2.37 µM (inactive); in [19], 2.28 µM (inactive).

Take `COC(=O)c1cc2c(o1)Sc1ccccc1NC2=O`: the GI50 was > 100 µM (inactive) in assay [2]; > 100 µM (inactive) in [3]; 68.5 µM (inactive) in assay [4]; > 100 µM (inactive) in [5]; > 100 µM (inactive) in assay [6]; 29 µM (inactive) in assay [7]. Also, the GI50 in [9], in [10], in [11], in [12], in assay [13] and in assay [14] was > 100 µM (inactive) throughout. The GI50 in assay [20] is > 100 µM (inactive); in [15], > 100 µM (inactive); in [16] it was 24.8 µM (inactive); in assay [17], > 100 µM (inactive); in assay [19], 83.2 µM (inactive).

For the compound `CC(C)(C)[Si](C)(C)OCC1OC(n2ccc(=O)[nH]c2=O)C(O[Si](C)(C)C(C)(C)C)/C1=N/O` (stereo not given), the GI50 in assay [1] was 3.61 µM (inactive); in [2] it was 4.18 µM (inactive); in assay [3], 5.96 µM (inactive); in assay [4], 3.33 µM (inactive); in [5], 2.71 µM (inactive); in assay [6] it was 3.44 µM (inactive). Moreover, the GI50 was 3.11 µM (inactive) in assay [7]; 4.13 µM (inactive) in assay [8]; 3.3 µM (inactive) in assay [9]; 4.38 µM (inactive) in [10]; 9.29 µM (inactive) in assay [11]; 2.42 µM (inactive) in [13]. Also, the GI50 in assay [14] is 2.45 µM (inactive); in assay [20], 2.82 µM (inactive); in assay [15], 3.33 µM (inactive); in assay [16], 18.5 µM (inactive); in assay [17] it was 2.73 µM (inactive); in assay [19] it was 4.25 µM (inactive).

As for `COc1cc2c(cc1OCCCNC(=O)c1cc3ccccc3[nH]1)N=C[C@@H]1CCCN1C2=O`, the GI50 in assay [1] was 0.318 µM (active); in assay [2] it was 0.277 µM (active); in [3] it was 0.234 µM (active); in assay [4], 0.301 µM (active); in assay [5] it was 0.19 µM (active); in assay [6] it was 0.504 µM (active). For the same compound, the GI50 in assay [7] was 0.24 µM (active); in [8], 1.02 µM (active); in [9] it was 0.318 µM (active); in assay [10], 0.378 µM (active); in assay [11], 0.223 µM (active); in assay [13], 0.391 µM (active). Also, the GI50 in assay [14] was 0.195 µM (active); in assay [20], 0.313 µM (active); in [15] it was 0.305 µM (active); in assay [16], 0.263 µM (active); in [17], 0.474 µM (active); in assay [19] it was 0.148 µM (active).

In the case of `C=C1CC=CC(C)(C)C1C/C=C(\C)C(O)CBr` (stereo not given), the GI50 was 35.7 µM (inactive) in assay [1]; 19.7 µM (inactive) in assay [2]; 53.7 µM (inactive) in [3]; 29.4 µM (inactive) in [4]; 28 µM (inactive) in assay [5]; > 100 µM (inactive) in assay [6]. Further, the GI50 is 29.9 µM (inactive) in assay [7]; > 100 µM (inactive) in assay [8]; > 100 µM (inactive) in [9]; 33.1 µM (inactive) in [10]; 45.4 µM (inactive) in assay [11]; 32.4 µM (inactive) in assay [12]. Further, the GI50 in assay [13] is 39 µM (inactive); in assay [14] it was 62.8 µM (inactive); in assay [20], 37.5 µM (inactive); in [15], 82.6 µM (inactive); in [17] it was 25.4 µM (inactive); in assay [19] it was 30.1 µM (inactive).

In the case of `CC(C)(C)C1=CC(=CC=C2C=CN(CCCCCCCCCCCO)C=C2)C=C(C(C)(C)C)C1=O`, the GI50 is 1.76 µM (inactive) in [1]; 0.815 µM (active) in assay [2]; 1.5 µM (inactive) in assay [3]; 1.31 µM (inactive) in [4]; 0.401 µM (active) in [5]; 2.03 µM (inactive) in assay [6]. Further, the GI50 is 2.07 µM (inactive) in [7]; 1.96 µM (inactive) in assay [8]; 1.78 µM (inactive) in assay [9]; 2.19 µM (inactive) in assay [10]; 2.88 µM (inactive) in assay [11]; 1.72 µM (inactive) in assay [12]. Besides, the GI50 in assay [13] is 1.69 µM (inactive); in assay [14] it was 1.73 µM (inactive); in assay [15] it was 1.75 µM (inactive); in assay [16] it was 1.82 µM (inactive); in assay [17], 0.338 µM (active); in assay [19] it was 0.782 µM (active). For the same compound, in [18], the GI50 is 1.46 µM (inactive).

With `COC(=O)c1cc(C)n(CN(Cc2ccccc2)Cn2nc(C(=O)OC)cc2C)n1`, the GI50 in assay [1] is > 46.1 µM (inactive); in [2], > 66.1 µM (inactive); in assay [3] it was > 31.9 µM (inactive); in [4] it was > 84.1 µM (inactive); in assay [5], 0.873 µM (active); in assay [6], > 100 µM (inactive). The GI50 was > 45.9 µM (inactive) in assay [7]; 66.5 µM (inactive) in [8]; > 81.5 µM (inactive) in [9]; > 46.9 µM (inactive) in assay [10]; > 62.1 µM (inactive) in [11]; > 46.9 µM (inactive) in assay [13]. Besides, the GI50 in assay [14] is 99.1 µM (inactive); in assay [20], > 100 µM (inactive); in assay [15], > 100 µM (inactive); in assay [16] it was > 27.2 µM (inactive); in [17] it was > 41 µM (inactive); in assay [19] it was > 100 µM (inactive). In [18], the GI50 is > 100 µM (inactive).
